Measurements published in patent US9249159B2, “Composition for treating hepatitis C virus, regulating phosphorylation of replicase” (Industry-Academic Cooperation Foundation, Yonsei University, priority 2011, dated 2016).

Experiments:
[1] = test system: R-1 cell; assay: Cytotoxicity / cell viability in R-1 cell; format: cell-based, human; conditions: R-1 cell versus parental Huh7, 72 hours
Experimental: Cytotoxicity of 17-DMAG was measured by using a reagent MTS [3-(4,5-dimethylthiazol-2-yl)-5-(3-carboxylmethoxyphenyl)-2-(4-sulfophenyl)-2H-tetrazolium] (Promega, Madison, Wis., USA) according to the protocols of the manufacturer. The experiment was carried out as follows.
Huh7 or R-1 cells (2×10^4 cell/well) were seeded in a 96-well plate and treated with 17-DMAG at different concentrations for 72 hours. Then, the culture medium was removed and a MTS substrate dissolved in the culture medium containing 5% FBS was added to each well of the plate. The cells were cultured at 37° C. for 1 hour, and absorbance at 490 nm was read in a 96-well micro plate automatic reading system using GloMax-Multi detection system (Promega).
An experiment was carried out to check whether or not 17-DMAG inhibited virus RNA replication in an R-1 cell in which autonomous replication of a genotype 1b HCV subgenomic replicon RNA was maintained. Before antiviral activity of 17-DMAG was evaluated, an MTS assay was carried out to evaluate whether or not the drug interfered with cell viability. To be specific, the R-1 cell loaded with a selective HCV subgenomic replicon (upper diagram) and its parental cell line Huh7 were treated with 17-DMAG at a certain concentration for 72 hours, and cell viability was evaluated by the MTS assay.

[2] = test system: PDK1; assay: Steady state level of PDK1 in Huh7 cell by immunoblotting; format: cell-based; conditions: increasing concentration, 48 hours
From the text: (§1) Total cell lysates from cells treated with inhibitors or IFN-α by using antibodies to PDK1, p-PDK1 (S241), PRK2, and p-PRK2 (T816) (products of Cell Signaling Technology, Inc., Beverly, Mass., USA) was used for immunoblotting. In order to detect PKC isoforms α, β, and γ, a polyclonal antibody to a consensus sequence present in three PKC (protein kinase C) isoforms α, β and γ (anti-pan-PKC; Zymed Laboratories, San Francisco, Calif., USA) was used. An anti-α-tubulin antibody (Oncogene Research Products, Cambridge, Mass., USA) was carried out in immunoblotting for checking whether or not the same amount of protein was loaded.
(§2) In order to test whether or not PDK1 in Huh7 as an HCC cell line was destabilized by inhibition of Hsp90, 17-DMAG as a second-generation geldanamycin derivative known as being safer than geldanamycin or its derivative 17-AAG and effective for oral delivery was used (FIG. 8A). The Huh7 cell was treated for 48 hours along with an increase in concentration of 17-DMAG, and a steady state level of PDK1 was evaluated by immunoblotting.

[3] = test system: PRK2; assay: PRK2 level in Huh7 cell by immunoblotting; format: cell-based; conditions: 500 nM, 48 hours
[4] = test system: pan-PKC (α, β, and γ); assay: pan-PKC level in Huh7 cell by immunoblotting; format: cell-based; conditions: 48 hours
From the text: as §1, §2

[5] = test system: Rho-kinase I (ROCKI); assay: ROCKI level in Huh7 cell by immunoblotting; format: cell-based; conditions: 48 hours
[6] = test system: PDK1; assay: PDK1 level and activation in R-1 cell by immunoblotting; format: cell-based; conditions: 10 or 50 nM, 72 hours
From the text: as §1
Therefore, anti-HCV activity of 17-DMAG in the R-1 cell was tested at a level lower than 50 nM. To do so, the R-1 cell was treated with a vehicle (0.25% DMSO) or 17-DMAG for 72 hours and the cell lysates (50 μg) and antibodies specific to the proteins were immunoblotted to measure levels of the proteins. An anti-α-tubulin antibody (lower end panel) was used as an internal loading control. The levels of the proteins were measured by densitometric analysis of immunoblot, and the phosphorylated amounts and relative intensities calculated with respect to PDK1 and PDK2 were converted with respect to α-tubulin signals and then quantitated. As a result of three independent experiments showing similar results, a representative blot picture was illustrated. […]

[7] = test system: HCV NS5B; assay: NS5B phosphorylation in Huh7TR-NS cell (anti-p-Ser immunoprecipitation, anti-NS5B immunoblot); format: cell-based, hepatitis C virus; conditions: 17-DMAG 50 nM or HA1077 20 μM, 48 hours
Experimental: The human hepatoma stable cell lines Huh7TR-4 and Huh7TR-NS [17], which express the tetracycline repressor and the HCV NS proteins (NS3-NS5) in a tetracycline-inducible manner, respectively, were maintained in the presence of blasticidin S (10 μg/mlL and Zeocine (100 μg/mL). NS protein expression in Huh7TR-NS was induced by addition of 1 μg/mL tetracycline for 24 h. The Huh7 cell-derived cell line R-1, supporting stable, autonomous replication of genotype 1b HCV subgenomic replicon RNA, was described previously. 17-DMAG, the PRK2 inhibitor, HA1077, and the inhibitor of phosphatidylinositol 3-kinase (PI3K), LY294002, were obtained from Sigma-Aldrich (St. Louis, Mo., USA) and Calbiochem Inc. (La Jolla, Calif., USA), and Biomol (Plymouth Meeting, Pa., USA), respectively. IFN-α was purchased from Sigma-Aldrich (1-4276).
For co-immunoprecipitation experiment, the cells were resuspended in lysis buffer A (100 mM Tris-HCl, pH 8.0, 150 mM NaCl, 1% Triton X-100, 10 mM NaF, 1 mM Na3VO4, 17.5 mM β-glycerophosphate) supplemented with an EDTA-free protease inhibitor cocktail (Roche Applied Science, Indianapolis, Ind., USA) and incubated on ice for 30 min. […]
Then, treatment with 17-DMAG (50 nM) or HA1077 (20 μM), a PRK2 inhibitor, was carried out for 48 hours. […] A case without treatment with an inhibitor was expressed as (−).

CO[C@H]1/C=C\C=C(/C)C(=O)NC2=CC(=O)C(NCCN(C)C)=C(C[C@@H](C)C[C@H](OC)[C@H](O)[C@@H](C)/C=C(\C)[C@@H]1OC(N)=O)C2=O [17-DMAG, 17-(dimethylaminoethylamino)-17-demethoxygeldanamycin]
sensitivity of cell viability (MTS assay) [1]: more sensitive to 17-DMAG than the parental cell line Huh7
PDK1 level [2]: gradually and significantly decreased
decrease of PRK2 level as compared with non-treated control [3]: about 68%
steady state content of pan-PKC (α, β, and γ) [4]: not significantly affected
steady state content of Rho-kinase I (ROCKI) [5]: not significantly affected
level of PDK1 [6]: decreased
NS5B phosphorylation [7]: inhibited NS5B phosphorylation
